Where two headings read alike, the source gives them in different places.
Legend:
[1] = type: in vitro ADME; conditions: rat
Protocol: Short-term stability was evaluated at 22–25 °C for 6 h, which represented the processing time. Autosampler stability at ambient temperature for 24 h, long-term stability (−80 °C for 6 weeks), and three cycles of thaw and freeze (−80 and 25 °C) were evaluated. The actual concentrations of QCs samples (LQC, MQC, and HQC) under the stability test condition were compared against freshly prepared samples. Moreover, stock solution and working solution stability was evaluated at refrigerator temperature (4 °C) for 2 weeks.

[2] = tested on: experimental nephrotoxic nephritis; parameters: method as in PMID 19959716; conditions: rats; cited from earlier work
[3] = Pharmacokinetic study of tamatinib in rats after oral fostamatinib (UPLC-MS/MS of plasma); type: in vivo, Wistar male rats
Protocol: The analysis was performed on Waters® Acquity H-Class UPLC® tandem triple quadrupole mass spectrometer (TQD) (Waters, Milford, USA). The H-Class UPLC® system contained Acquity sample manager and Acquity quaternary solvent manager. TQD was equipped with electrospray ionization (ESI) probe. Samples were detected and quantified in multiple reaction monitoring (MRM) mode. […] Mobile phase composition was 10 mM ammonium acetate and acetonitrile (10:90). The mobile phase was adjusted at 0.25 mL/min. […] Samples were vortex-mixed for 30 s, and 1 mL of MTBE was added. All samples were vortex-mixed for 1 min, then centrifuged at 8 °C for 10 min at 4500 g. After centrifugation, the upper layer was transferred to 2 mL tubes and dried using a vacuum concentrator at 40 °C. The residue was reconstituted with 100 µL of the mobile phase and a volume of 5 µL was injected into the UPLC–MS/MS. Eight Wistar male rats weighing 210 ± 20 g (aged about 2 months) were provided by National Organization for Drug Control and Research, Cairo, Egypt. Rats were placed in cages in optimum conditions of humidity (40–60%) and temperature (22–26 °C) with regular 12 h day-night cycle. No diet was available for animals for 10 h prior and 1 h post drug administration. Water was available ad libitum. Rats were administered orally (using the gavage technique) 12.5 mg/kg (the middle dose used in the work of Clemens et al.) fostamatinib as a suspension in 1% sodium carboxymethylcellulose. Under light anesthesia, blood samples (0.3 mL) were collected from orbital sinus, in heparinized tube, at different time points; 0, 0.5, 1.0, 2.0, 3.0, 4.0, 6.0, 8.0, 12.0, 24.0, and 48.0 h after drug administration. Plasma samples were obtained by centrifugation at 3000 g for 3 min and kept frozen at −80 °C until analysis. Non-compartmental analysis with the trapezoidal rule was used for estimation of pharmacokinetic parameters. These parameters were calculated using WinNonlin software (Pharsight Co., Mountain View, CA, USA).

[4] = tested on: collagen-induced arthritis; parameters: method as in PMID 17537677; conditions: rodents; cited from earlier work
lung tissue = tested on: lung tissue; parameters: method as in PMID 26148346; conditions: treated mice; cited from earlier work
[5] = parameters: method as in PMID 19107952; conditions: administration during pregnancy; cited from earlier work
[6] = parameters: method as in PMID 23190017, PMID 20371637; conditions: human intestinal microsomes; in vitro and in humans; cited from earlier work
[7] = male, Wistar, rat, plasma, po, 12.5 mg/kg

COc1cc(Nc2ncc(F)c(Nc3ccc4c(n3)NC(=O)C(C)(C)O4)n2)cc(OC)c1OC [Tamatinib, tamatinib]
Accuracy ([1]; 0.3 ng/mL): 90.0% | Measured Concentration ([1]; 0.3 ng/mL): 0.27 ± 0.01 ng/mL | Accuracy ([1]; 75 ng/mL): 89.9% | Measured Concentration ([1]; 75 ng/mL): 67.40 ± 2.79 ng/mL | Accuracy ([1]; 750 ng/mL): 86.6% | Measured Concentration ([1]; 750 ng/mL): 649.20 ± 69.95 ng/mL | Accuracy ([1]; 6 weeks, 0.3 ng/mL): 86.7% | Measured Concentration ([1]; 6 weeks, 0.3 ng/mL): 0.26 ± 0.02 ng/mL | Accuracy ([1]; 6 weeks, 75 ng/mL): 88.1% | Measured Concentration ([1]; 6 weeks, 75 ng/mL): 66.10 ± 7.77 ng/mL | Accuracy ([1]; 6 weeks, 750 ng/mL): 85.4% | Measured Concentration ([1]; 6 weeks, 750 ng/mL): 640.60 ± 73.94 ng/mL | Accuracy ([1]; 6 h, 0.3 ng/mL): 86.7% | Measured Concentration ([1]; 6 h, 0.3 ng/mL): 0.26 ± 0.03 ng/mL | Accuracy ([1]; 6 h, 75 ng/mL): 86.2% | Measured Concentration ([1]; 6 h, 75 ng/mL): 64.65 ± 3.47 ng/mL | Accuracy ([1]; 6 h, 750 ng/mL): 85.3% | Measured Concentration ([1]; 6 h, 750 ng/mL): 640.10 ± 43.19 ng/mL | Accuracy ([1]; 24 h, 0.3 ng/mL): 86.7% | Measured Concentration ([1]; 24 h, 0.3 ng/mL): 0.26 ± 0.02 ng/mL | Accuracy ([1]; 24 h, 75 ng/mL): 85.3% | Measured Concentration ([1]; 24 h, 75 ng/mL): 64.00 ± 5.11 ng/mL | Accuracy ([1]; 24 h, 750 ng/mL): 87.2% | Measured Concentration ([1]; 24 h, 750 ng/mL): 654.34 ± 97.10 ng/mL | effect in experimental nephrotoxic nephritis [2]: reduced glomerular macrophage infiltration, tissue injury, and proteinuria | AUC(0-inf) [3, 7]: 6420 ± 1500 ng·h/mL | Cmax [3, 7]: 653 ± 70.4 ng/mL | MRT [3, 7]: 19.8 ± 2.9 h | Tmax [3, 7]: 3 h | half-life [3, 7]: 18.3 ± 0.9 h | AUC(0-t) ([3]; male, Wistar, rat, plasma, po, 12.5 mg/kg, read-out: AUC0–48): 5640 ± 1210 ng·h/mL | Clearance ([3]; tamatinib in plasma, oral fostamatinib 12.5 mg/kg, rats, mean ± SD): 0.030 ± 0.001 L/h | effect in collagen-induced arthritis [4]: progressive improvement in histopathology, clinical scores, and joint radiography

COc1cc(Nc2ncc(F)c(Nc3ccc4c(n3)N(COP(=O)(O)O)C(=O)C(C)(C)O4)n2)cc(OC)c1OC [fostamatinib, Fostamatinib sodium]
fibrosis and inflammation in lung tissue (lung tissue): less fibrosis and inflammation in lung tissue | developmental toxicity [5]: caused urogenital and cardiovascular abnormalities | transformation to tamatinib [6]: rapidly transformed to tamatinib
